From patent US8378098B2, “Imidazol[1,2-α]quinoxalines and derivatives for the treatment of cancers” (Universite de Montpellier I, priority 2007, dated 2013)
Like-named read-outs stand apart in the source and are kept apart here.

Legend:
[1] = test system: M4Be human melanoma; experiment: anti-proliferative activity in vivo, M4Be human melanoma xenografted in athymic mice
Procedure: FIG. 1: Effects of fotemustine (20 mg/kg once per week for 3 weeks) and EAPB0203 (20 mg/kg twice per week for 3 weeks) on tumour growth in athymic Swiss mice xenografted with M4Be human melanoma cell line.
Δ, control; ▪, EAPB0203; ●, fotemustine. The data are the results of only one experiment carried out on six mice per group. The results are represented as mean±SEM.
In this study, data are presented relating to the activity of EAPB0203 on the volume of a type of human melanoma tumour model (M4Be lines), xenografted in athymic mice. This study required as a preliminary step several tests of grafts of human melanoma cell lines in athymic mice before establishing the adequate animal model. The in vivo study was performed following the in vitro experiments described previously.
The activity and specificity of EAPB0203 in vivo on tumour growth of human melanoma are evaluated by monitoring tumour development in mice carrying M4Be melanoma treated by administration of fotemustine and EAPB0203 at various doses.
For this study, 18 Swiss nude mice (3 groups of 6 mice) were used. M4Be cancer cells in suspension were injected subcutaneously into the right flank of each athymic Swiss nude female 7-week-old mouse weighing 20-22 g at the beginning of the protocol. The mice were then maintained in a sterile atmosphere and received aseptic food and water. The weight of the mouse and the growth of the tumour in three dimensions were recorded twice a week.
A first group of 6 mice (reference) will receive fotemustine by intra-peritoneal route at a dose of 20 mg/kg once per week for 3 weeks, beginning 7 days after inoculation at the time when the tumour will be visible and palpable. A second group of 6 mice will receive EAPB0203 at the same dose of 20 mg/kg via intra-peritoneal route but twice per week (40 mg/kg per week). The third group (control) of 6 mice will receive only the administration carrier. Tumour volume is calculated by the following formula: length X width X height X 0.52, and is expressed as mean±SEM mm^3.
For fotemustine and EAPB0203, the sequence of administrations is a treatment of three weeks, then two weeks without treatment, and then a second treatment of three weeks.

[2] = test system: CEM and HuT-102 cells; HuT-102 and MT2 cells; experiment: protein expression by western blot (caspases, Bcl-2 family, cell cycle regulators); type: cell-based, human
Text: Proteinic cell extracts were obtained after various treatments and evaluation of the expression of certain proteins was studied by western blot.
Activation of the mitochondrial route is controlled by members of the Bcl-2 family. […] In the cell lines infected or not infected by HTLV-I, the effect of EAPB0203 on regulators of the cell cycle is studied.

[3] = test system: M4Be (melanoma); experiment: in vitro cytotoxicity on M4Be melanoma line; type: cell-based; details: Homo sapiens, Table 2, unit inferred, read-out: IC50 M4Be
Text: (§1) Several human carcinoma cell lines were used: • Lines A375, M4Be, RPMI7591 from human melanoma. • Line LS174T from colon carcinoma. • Line A 2780 from ovarian carcinoma. • The Raji line from B lymphoma. • Line MCF7 from breast carcinoma.

[4] = test system: Raji (B lymphoma); experiment: in vitro cytotoxicity on Raji B lymphoma line; type: cell-based, human; details: Homo sapiens, Raji; Table 2; unit inferred
Text: as §1

[5] = in vivo; details: rat, iv, 5 mg/kg
Procedure: Methods of assaying compounds EAPB0203, EAPB0503 and EAPB0603 by high performance liquid chromatography and detection by mass spectrometry (LC/ESI-MS) were developed and validated in human and rat plasmas. Pre-treatment of the samples consists of a liquid solid extraction preceded by precipitation of plasma proteins in acid medium. The chromatographic column used is C8 Zorbax eclipse XDB and the mobile phase (gradient) a mixture of acetonitrile and formate buffer (pH 3) (flow rate, 0.8 ml/min). The […] from 92 to 113%. The extraction coefficients are higher than 72%. The quantification limit is 5 μg/l for all analytes. Stability tests of the compounds in the matrices were also carried out. These methods were used to determine the pharmacokinetic parameters of compounds EAPB0203, EAPB0503 and EAPB0603 in the rat. The lethal doses 50% of compounds EAPB0203 and EAPB0503 are respectively 14.8 and 7.6 mg/kg.

[6] = test system: A375 melanoma; experiment: in vitro cytotoxicity (antiproliferative activity) on A375 melanoma line; type: cell-based, human; details: for IC50: Homo sapiens, A-375
Text: Antiproliferative activity was first measured on a cancer cell line of human origin, A375 melanoma.
Imiquimod and fotemustine (Muphoran®) are used as controls in this study.
as §1
IC50 (concentration of the product tested which inhibits 50% of the maximum cell proliferation observed in the control wells) is determined graphically from the curve of the percentage of cell proliferation as a function of concentration of the product tested.

[7] = A375, comparison of IC50 values

CNc1nc2ccccc2n2c(CCc3ccccc3)cnc12 [EAPB0203, N-methyl-1-(2-phenylethyl)imidazo[1,2-a]quinoxalin-4-amine]
tolerance (weight, side effects) ([1]; 20 mg/kg twice per week, intra-peritoneal, mice carrying M4Be melanoma): well tolerated without loss of weight or apparent side effects | tumour growth compared to control mice and fotemustine mice ([1]; EAPB0203 20 mg/kg twice per week i.p., FIG. 1): significant delay in tumour growth | tumour volume of a remaining mouse when last fotemustine mice were euthanatized ([1]; day 76, 20 mg/kg twice per week i.p.): less than 2 cm^3 | caspases (cleavage of PARP, procaspase-3, -8, -9) ([2]; CEM and HuT-102 cells, western blot): activation of caspases | expression of proteins p21 and p53 ([2]; HuT-102 and MT2 cells (HTLV-I-positive)): significant increase | apoptosis under co-treatment by caspase inhibitor zVAD ([2]; co-treatment with zVAD): partial protection | expression of IAP-1 proteins and bcl-xL ([2]; western blot): significant reduction | IC50 [3]: 2580 ± 400 nM | IC50 [4]: 6230 ± 60 nM | Vd [5]: 10.6 L/kg | area under the curve of plasma concentrations [5]: 870 ng·h/mL | clearance [5]: 48.3 mL/min/kg | half-life [5]: 2.6 h | activity times higher than that of fotemustine [6, 7]: 110 times | activity times higher than that of imiquimod [6, 7]: 50 times | IC50 ([6]; A375 melanoma line, Table 1, IC50 and standard deviation, read-out: IC50): 1570 nM | IC50 ([6]; Table 2, unit inferred, read-out: IC50 A375): 1570 ± 560 nM
